Values quoted from earlier work, collected in patent US8288342B2, “Methods for treating vasomotor symptoms in castrated prostatic cancer patients with low dose cyproterone acetate” (priority 2008, dated 2012).

System: hot flashes
Conditions: 37 subjects with bothersome hot flashes; cited from earlier work

## CC(=O)O[C@]1(C(C)=O)CC[C@H]2[C@@H]3C=C(C)C4=CC(=O)CC[C@]4(C)[C@H]3CC[C@@]21C [MA, megestrol acetate]
  Therapeutic efficacy: reduction in hot flashes: 70%
